From patent US8178658B2 (Dow AgroSciences, LLC, priority 2008, dated 2012)

Experiments:
[1] = tested on: beet armyworm (BAW; Spodoptera exigua: Lepidoptera); experiment: 128-well diet tray assay on beet armyworm (BAW 50); format: in vivo; details: 128-well diet tray assay; 50 μg/cm^2 of test compound on diet; second instar BAW larvae; mortality class
Description: (§1) Bioassays on beet armyworm (BAW; Spodoptera exigua: Lepidoptera) were conducted using either a 96-well microtiter plate-based high throughput (HTS) bioassay or a 128-well diet tray assay. The HTS assay is a based on a modification of Lewer et al. J. Nat. Prod. 2006, 69, 1506. BAW eggs of were placed on top of artificial diet (100 μl) in each well of 96-well microtiter plate. The diet was pretreated with test compounds (12 μg dissolved in 30 μL of DMSO-acetone-water mixture) layered on top of the diet using a liquid handling system and then allowed to dry for several hours. Infested plates were then covered with a layer of sterile cotton batting and the plate lid, and then held in the dark at 29° C. Mortality was recoded at 6 d post-treatment. Each plate had six replicates. The percent mortality was calculated from the average of the six replicates. In the case of the 128-well diet assay, three to five second instar BAW larvae were placed in each well (3 mL) of the diet tray that had been previously filled with 1 mL of artificial diet to which 50 μg/cm^2 of the test compound (dissolved in 50 μL of 90:10 acetone-water mixture) had been applied (to each of eight wells) and then allowed to dry. Trays were covered with a clear self-adhesive cover, and held at 25° C., 14:10 light-dark for six days. Percent mortality was recorded for the larvae in each well; activity in the eight wells was then averaged. In Table 7, under the BAW HTS or BAW 50 heading, an “A” means that the compound was tested and at least 50 percent mortality was observed whereas, “B” means that either (1) the compound was tested and less than 50 percent mortality was observed or (2) the compound was not tested.

[2] = tested on: beet armyworm (BAW; Spodoptera exigua: Lepidoptera); experiment: 96-well microtiter plate-based high throughput (HTS) diet bioassay on beet armyworm (BAW HTS); format: in vivo; details: BAW eggs, 12 μg test compound per well, mortality at 6 d post-treatment, mortality class
Description: as §1

[3] = 96-well microtiter plate HTS diet assay

SMILES	BAW 50 ug/cm2 [1]	BAW HTS ([2]; 96-well HTS diet bioassay)	BAW HTS [2, 3]
COC1C(C)OC(ON=Cc2ccc(-c3cn(-c4nc(F)c(F)c(F)c4F)cn3)cc2)C(OC)C1OC (stereo not drawn) [Compound 38]	A (the compound was tested and at least 50 percent mortality was observed)	B (either (1) the compound was tested and less than 50 percent mortality was observed or (2) the compound was not tested)	B (either (1) the compound was tested and less than 50 percent mortality was observed or (2) the compound was not tested)
COC1C(C)OC(ON=Cc2ccc(-c3cn(-c4ccc(I)cn4)cn3)cc2)C(OC)C1OC (stereo not drawn) [Compound 39]	A (the compound was tested and at least 50 percent mortality was observed)	B (either (1) the compound was tested and less than 50 percent mortality was observed or (2) the compound was not tested)	B (either (1) the compound was tested and less than 50 percent mortality was observed or (2) the compound was not tested)
COc1ccc(C=NOC2OC(C)C(OC)C(OC)C2OC)cc1-c1cn(-c2ccc(C(F)(F)F)cc2)cn1 (stereo not drawn) [Compound 40]	A (the compound was tested and at least 50 percent mortality was observed)	B (either (1) the compound was tested and less than 50 percent mortality was observed or (2) the compound was not tested)	B (either (1) the compound was tested and less than 50 percent mortality was observed or (2) the compound was not tested)
COC1C(C)OC(ON=Cc2ccc(-c3cn(-c4ccc(C)cc4)cn3)cc2)C(OC)C1OC (stereo not drawn) [Compound 41]	A (the compound was tested and at least 50 percent mortality was observed)	B (either (1) the compound was tested and less than 50 percent mortality was observed or (2) the compound was not tested)	B (either (1) the compound was tested and less than 50 percent mortality was observed or (2) the compound was not tested)
COC1C(C)OC(ON=Cc2ccc(-c3cn(-c4ccc(C(F)(F)F)cc4)cn3)cc2)C(OC)C1OC (stereo not drawn) [Compound 42]	A (the compound was tested and at least 50 percent mortality was observed)	B (either (1) the compound was tested and less than 50 percent mortality was observed or (2) the compound was not tested)	B (either (1) the compound was tested and less than 50 percent mortality was observed or (2) the compound was not tested)
COC1C(C)OC(ON=Cc2ccc(-c3cn(-c4ccc(Cl)cc4)cn3)cc2)C(OC)C1OC (stereo not drawn) [Compound 43]	A (the compound was tested and at least 50 percent mortality was observed)	B (either (1) the compound was tested and less than 50 percent mortality was observed or (2) the compound was not tested)	B (either (1) the compound was tested and less than 50 percent mortality was observed or (2) the compound was not tested)
COc1ccc(-n2cnc(-c3ccc(C=NOC4OC(C)C(OC)C(OC)C4OC)cc3)c2)cc1 (stereo not drawn) [Compound 44]	A (the compound was tested and at least 50 percent mortality was observed)	B (either (1) the compound was tested and less than 50 percent mortality was observed or (2) the compound was not tested)	B (either (1) the compound was tested and less than 50 percent mortality was observed or (2) the compound was not tested)
COC1C(C)OC(ON=Cc2ccc(-c3cn(-c4ccc(Br)cc4)cn3)cc2)C(OC)C1OC (stereo not drawn) [Compound 45]	A (the compound was tested and at least 50 percent mortality was observed)	B (either (1) the compound was tested and less than 50 percent mortality was observed or (2) the compound was not tested)	B (either (1) the compound was tested and less than 50 percent mortality was observed or (2) the compound was not tested)
COC1C(C)OC(ON=Cc2ccc(-c3cn(-c4ccc(C(C)C)cc4)cn3)cc2)C(OC)C1OC (stereo not drawn) [Compound 46]	A (the compound was tested and at least 50 percent mortality was observed)	B (either (1) the compound was tested and less than 50 percent mortality was observed or (2) the compound was not tested)	B (either (1) the compound was tested and less than 50 percent mortality was observed or (2) the compound was not tested)
